Measured values reported in patent US6710047B2, “Phthalazines with angiogenesis inhibiting activity” (Novartis AG, priority 1997, dated 2004).
Where a name gives a salt, the structure may show the parent alone. Read-outs that look alike come from different tables or passages of the source.

Key:
[1] = molecular target: T1, Flt-1 VEGF-receptor tyrosine kinase (Homo sapiens, UniProt P17948); test: Test for activity against Flt-1 VEGF-receptor tyrosine kinase
T1 sequence (P17948 827-1158 limits assumed): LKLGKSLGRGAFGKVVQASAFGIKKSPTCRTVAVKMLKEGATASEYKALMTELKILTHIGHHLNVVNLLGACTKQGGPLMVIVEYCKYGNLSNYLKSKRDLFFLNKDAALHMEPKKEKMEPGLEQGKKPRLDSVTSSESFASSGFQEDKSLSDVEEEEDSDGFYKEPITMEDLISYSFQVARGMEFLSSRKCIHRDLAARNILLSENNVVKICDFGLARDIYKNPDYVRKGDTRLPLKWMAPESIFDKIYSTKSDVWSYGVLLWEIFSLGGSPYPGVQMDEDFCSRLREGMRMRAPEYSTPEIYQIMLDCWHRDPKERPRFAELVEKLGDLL
Experimental: Test for activity against VEGF-receptor tyrosine kinase. The test is conducted using Flt-1 VEGF-receptor tyrosine kinase. […] The reaction is then ended by the addition of 10 μl 0.25 M ethylenediaminetetraacetate (EDTA) pH 7. Using a multichannel dispenser (LAB SYSTEMS, USA), an aliquot of 20 μl is applied to a PVDF (=polyvinyl difluoride) Immobilon P membrane (Millipore, USA), incorporating a Millipore microtiter filter manifold, and connected to a vacuum.
The test is conducted using Flt-1 VEGF-receptor tyrosine kinase, as described hereinabove.

[2] = kinase domain of Flt-1, poly(Glu,Tyr) 4:1, 8 μM [33P]-ATP, 15 minutes at room temperature

Row | melting point | IC50 [1] [nM] | IC50 [1, 2] [nM] | SMILES
1 | 196 to 200 °C |  |  | CC(C)(C)c1ccc(Nc2nnc(Cc3ccncc3)c3ccccc23)cc1.Cl.Cl
2 | 228 to 230 °C | 666 |  | N#Cc1ccc(Nc2nnc(Cc3ccncc3)c3ccccc23)cc1 [Example 24, 1-(4-Cyanoanilino)-4-(4-pyridylmethyl)phthalazine]
3 |  | 1270 |  | Clc1cccc(Oc2nnc(Cc3ccncc3)c3ccccc23)c1 [Example 72A, 1-(3-Chlorophenoxy)-4-(4-pyridylmethyl)phthalazine]
4 |  | 2500 |  | Cc1cccc(Nc2nnc(Cc3ccncc3)c(C)c2C)c1 [Example 82E, 3-(3-methylanilino)-4,5-dimethyl-6-(pyridin-4-yl)methylpyridazine]
5 | 180 to 181 °C | 234 |  | CCCc1ccc(Nc2nnc(Cc3ccncc3)c3ccccc23)cc1 [Example 44B, 1-(4-Propylanilino)-4-(4-pyridylmethyl)phthalazine]
6 | > 250 °C |  |  | CC(C)c1ccc(Nc2nnc(Cc3ccncc3)c3ccccc23)cc1 (as salt: hydrochloride) [Example 47, 1-(4-Isoprolylanilino)-4-(4-pyridylmethyl)phthalazine dihydrochloride]
7 | 158 to 159 °C |  | 624 | Cc1cc(Cc2nnc(Nc3ccc(Cl)cc3)c3ccccc23)ccn1 [Example 44F, 1-(4-Chloroanilino)-4-[(2-methyl-4-pyridyl)methyl]phthalazine]
8 | 174 to 176 °C | 2400 |  | Clc1ccc(Nc2nnc(Cc3ccncn3)c3ccccc23)cc1 [Example 66, 1-(4-Chloroanilino)-4-(4-pyrimidinylmethyl)phthalazine]
9 | 143 to 144 °C | 440 |  | CCc1cccc(Nc2nnc(Cc3ccncc3)c3ccccc23)c1 [Example 67E]
10 | 185 to 187 °C |  |  | FC(F)C(F)(F)Oc1cccc(Nc2nnc(Cc3ccncc3)c3ccccc23)c1 (hydrate or solvate) [Example 67S]
11 | 220 to 221 °C | 3200 |  | Clc1ccc(Nc2nnc(Cc3ccncc3)c3ccncc23)cc1 [Example 76, 4-(4-Chloroanilino)-1-(4-pyridylmethyl)pyrido[3,4-d]pyridazine]
12 | 206 to 207 °C | 1000 |  | Oc1cccc(Oc2nnc(Cc3ccncc3)c3ccccc23)c1 [Example 56, 1-(3-Hydroxyphenoxy)-4-(4-pyridylmethyl)phthalazine]
13 | 160 to 163 °C |  |  | COc1ccc(Nc2nnc(Cc3ccncc3)c3ccc(NC(C)=O)cc23)cc1.Cl
14 |  |  | 907 | CC(c1ccncc1)c1nnc(Nc2ccc(Cl)cc2)c2ccccc12 (racemic) [Example 64, rac 1-(4-Chloroanilino) 4-[1-(4-pyridyl)ethyl]phthalazine]
15 |  |  | 1000 | CC1(c2ccc(Nc3nnc(Cc4ccncc4)c4ccccc34)cc2)OCCO1 [Example 70B, 1-[(2′-methyl-1′,3′-dioxolan-2′-yl)-anilino]-4-(4-pyridylmethyl)phthalazine]
16 |  | 774 |  | Cc1ccc(Nc2nnc(Cc3ccncc3)c(C)c2C)cc1 [Example 82B, 3-(4-methylanilino)-4,5-dimethyl-6-(pyridin-4-yl)methylpyridazine]
17 |  | 328 |  | CC(C)c1cccc(Nc2nnc(Cc3ccncc3)c3ccccc23)c1 [Example 67Q]
18 | 207 to 208 °C | 284 |  | Clc1ccc(Oc2nnc(Cc3ccncc3)c3ccccc23)cc1 [Example 72B]
19 | 157 to 159 °C | 317 |  | Fc1cc(Cl)ccc1Nc1nnc(Cc2ccncc2)c2ccccc12 [Example 44D, 1-(4-Chloro-2-fluoroanilino)-4-(4-pyridylmethyl)phthalazine]
20 | 192 to 195 °C |  |  | Cc1ccc(Nc2nnc(Cc3ccncc3)c3ccccc23)cc1O (hydrate or solvate) [Example 67B]
21 | > 270 °C |  |  | CC(=O)Nc1ccc(Nc2nnc(Cc3ccncc3)c3ccccc23)cc1 [Example 11, 1-(4-Acetaminoanilino)-4-(4-pyridylmethyl)phthalazine]
22 | 260 to 265 °C |  |  | CC(=O)Nc1ccc2c(Cc3ccncc3)nnc(Nc3ccc(Cl)cc3)c2c1.Cl

Row | melting point | IC50 [1] [nM] | IC50 [1, 2] [nM] | SMILES
23 |  | 210 |  | Clc1cccc(Nc2nnc(Cc3ccncc3)c3ccccc23)c1 [Example 5, 1-(3-Chloroanilino)-4-(4-pyridylmethyl)phthalazine 1,8 hydrochloride]
24 | 233 to 236 °C |  |  | Clc1ccc(Nc2nnc(NCc3ccncc3)c3ccccc23)cc1 [Example 49, 1-(4-Chloroanilino)-4-(4-pyridylmethylamino)phthalazine]
25 |  | 42 |  | Nc1ccc2c(Cc3ccncc3)nnc(Nc3ccc(Cl)cc3)c2c1 [Example 32A, 7-Amino-1-(4-chloroanilino)-4-(4-pyridylmethyl)phthalazine hydrochloride]
26 | 226 to 228 °C |  |  | [O-][n+]1nc(Nc2ccc(Cl)cc2)c2ccccc2c1Cc1ccncc1 [Example 55, 1-(4-Chloroanilino)-4-(4-pyridylmethyl)phthalazine-3-oxide]
27 | 156 to 159 °C |  |  | COc1cccc(Nc2nnc(Cc3ccncc3)c3ccc(NC(C)=O)cc23)c1.Cl
28 |  | 1000 |  | Nc1ccc2c(Cc3ccncc3)nnc(Nc3cccc(Cl)c3)c2c1 [Example 32B]
29 |  | 1000 |  | CC(=O)c1cccc(Nc2nnc(Cc3ccncc3)c3ccccc23)c1 [Example 70A, 1-(3-Acetylanilino)-4-(4-pyridylmethyl)phthalazine]
30 | 137 to 139 °C |  |  | c1cncc(Nc2nnc(Cc3ccncc3)c3ccccc23)c1 [Example 15, 1-(3-Pyridylamino)-4-(4-pyridylmethyl)phthalazine]
31 | 190 °C (dec.) |  |  | C[C@@H](Nc1nnc(Cc2ccncc2)c2ccccc12)c1ccccc1.Cl.Cl
32 |  | 793 |  | COc1cccc(Nc2nnc(Cc3ccncc3)c3ccc(N)cc23)c1 [Example 32F]
33 |  | 335 |  | Cc1ccc(Nc2nnc(Cc3ccncc3)c3ccccc23)cc1O [Example 67B]
34 |  | 1200 |  | FC(F)C(F)(F)Oc1cccc(Nc2nnc(Cc3ccncc3)c3ccccc23)c1 [Example 67S]
35 | 110 to 111 °C |  |  | COc1cc(Nc2nnc(Cc3ccncc3)c3ccccc23)cc(OC)c1OC [Example 54, 1-(3,4,5-Trimethoxyanilino)-4-(4-pyridylmethyl)phthalazine]
36 | 189 to 191 °C |  |  | c1ccc(-c2ccc(Nc3nnc(Cc4ccncc4)c4ccccc34)cc2)cc1
37 | 118 to 120 °C |  |  | COc1cccc(Nc2nnc(Cc3ccncc3)c3ccccc23)c1
38 | 217 to 219 °C |  |  | Oc1cccc(Nc2nnc(Cc3ccncc3)c3ccccc23)c1
39 |  | 478 |  | Cc1c(Cc2ccncc2)nnc(Nc2ccc(Cl)cc2)c1C [Example 82A, 3-(4-chloroanilino)-4,5-dimethyl-6-(pyridin-4-yl)methylpyridazine]
40 | 217 to 220 °C |  |  | Cl.Cl.c1ccc(Nc2nnc(Cc3ccncc3)c3ccccc23)cc1
41 |  | 188 |  | CC(C)c1ccc(Nc2nnc(Cc3ccncc3)c3ccccc23)cc1 [Example 47, 1-(4-Isoprolylanilino)-4-(4-pyridylmethyl)phthalazine dihydrochloride]
42 | 162 to 166 °C |  |  | CC(=O)Nc1ccc2c(Cc3ccncc3)nnc(Nc3ccccc3)c2c1.Cl
43 |  | 480 |  | Cc1ccc(Nc2nnc(Cc3ccncc3)c3ccc(N)cc23)cc1 [Example 32D]
